For series [1] the following is noted: cited from earlier work.
Series [2] can be described thus: Equilibrium solubility of TDL in oils, surfactants and cosurfactants. Type of series: physicochemical. How it is done:
The equilibrium solubility of TDL in selected oils was measured by adding an excess quantity of the drug to 1 mL of oils (Miglyol® 812 N, Miglyol® 840, Miglyol® 829, triacetin, isopropyl myristate, castor oil, oleic acid, cinnamon oil, N-methyl pyrrolidone) separately in 1.5 mL stoppered glass vials and mixed by a vortex mixer. Samples were further placed at room temperature (25 ± 1 °C) on a shaker (Incu-Shaker, Benchmark Scientific, Edison, NJ, USA) at 180 rpm for 72 h. The mixture was further centrifuged for 15 min at 3000 rpm. The upper supernatant was removed, and the amount of drug was determined using UV analyzer (Jenway, Staffs, UK) at a lambda max of 284 nm. The data presented in Table 1 are the mean values and standard deviations (SDs) for each oil sample, based on three replicates.
The solubility screening of TDL in various surfactants (Tween 80, Span 80, Cremophor RH 40, PEG-400, propylene glycol, isopropyl alcohol, and Transcutol) was performed following the same procedure as the oil screening. The results presented in the article are the mean values and standard deviations (SDs) for surfactant and cosurfactant samples, based on three replicates.

For series [3] the following is noted: cited from earlier work. This is another data set of the same source.
On the set-up of series [4]: method as in doi:10.1016/j.jddst.2022.103166. To be noted: cited from earlier work.

Molecules are shown by their SMILES. Values after ≈ are worked out from the molar mass of the structure shown. Read-outs that look alike come from different tables or passages of the source.

The term half-life denotes how long it takes for the measured level to halve. The solubility is how much of the substance goes into solution per volume.

Turning to `CN1CC(=O)N2[C@H](c3ccc4c(c3)OCO4)c3[nH]c4ccccc4c3C[C@@H]2C1=O` [Tadalafil], the half-life in series [1] was 15 to 17 h. The solubility at 72 h in series [2] (25 °C, oil or lipid, thermodynamic from solid, in Castor oil, 25 ± 1 °C, 72 h) turned out to be 450 ± 30 µg/mL (≈ 1160 µM); in series [2] (25 °C, oil or lipid, thermodynamic from solid, in Cinnamon oil, 25 ± 1 °C, 72 h), 53600 ± 2580 µg/mL (≈ 138000 µM); in series [2] (25 °C, oil or lipid, thermodynamic from solid, in Miglyol 812N, 25 ± 1 °C, 72 h), 330 ± 10 µg/mL (≈ 847 µM); in series [2] (25 °C, oil or lipid, thermodynamic from solid, in Miglyol 829, 25 ± 1 °C, 72 h), 910 ± 140 µg/mL (≈ 2340 µM); in series [2] (25 °C, oil or lipid, thermodynamic from solid, in Miglyol 840, 25 ± 1 °C, 72 h), 290 ± 10 µg/mL (≈ 745 µM); in series [2] (25 °C, oil or lipid, thermodynamic from solid, in Oleic acid, 25 ± 1 °C, 72 h), 190 ± 10 µg/mL (≈ 488 µM). In addition, the solubility at 72 h in series [2] (25 °C, oil or lipid, thermodynamic from solid, in Triacetin, 25 ± 1 °C, 72 h) came out at 3830 ± 70 µg/mL (≈ 9840 µM); in series [2] (25 °C, organic solvent or mixture, thermodynamic from solid, in Isopropyl alcohol), 510 ± 10 µg/mL (≈ 1310 µM); in series [2] (25 °C, organic solvent or mixture, thermodynamic from solid, in PEG-400) it was 14000 ± 1010 µg/mL (≈ 35900 µM); in series [2] (25 °C, organic solvent or mixture, thermodynamic from solid, in Propylene glycol), 840 ± 50 µg/mL (≈ 2160 µM); in series [2] (25 °C, organic solvent or mixture, thermodynamic from solid, in Transcutol) it was 33400 ± 1320 µg/mL (≈ 85700 µM); in series [2] (25 °C, thermodynamic from solid, in Cremophor RH 40) it was 27600 ± 1230 µg/mL (≈ 70800 µM). The solubility at 72 h in series [2] (25 °C, thermodynamic from solid, in N-methyl pyrrolidone, 25 ± 1 °C, 72 h) is 325000 ± 4560 µg/mL (≈ 835000 µM); in series [2] (25 °C, thermodynamic from solid, in Span 80), 170 ± 30 µg/mL (≈ 437 µM); in series [2] (25 °C, thermodynamic from solid, in Tween 80) it was 280 ± 10 µg/mL (≈ 719 µM); in series [2] (in Cremophor RH 40), approximately 27600 µg/mL (≈ 70800 µM); in series [2] (in Transcutol), approximately 33400 µg/mL (≈ 85700 µM). The water solubility in series [3] is on record as 3.2 µg/mL (≈ 8.22 µM). Besides, the solubility in water in series [3] (lower literature value) is 0.73 µg/mL (≈ 1.87 µM); in series [3] (upper literature value), 3.48 µg/mL (≈ 8.94 µM). The log p in series [4] is listed as 2.89.
`CCCc1nn(C)c2c(=O)[nH]c(-c3cc(S(=O)(=O)N4CCN(C)CC4)ccc3OCC)nc12` [sildenafil]: in series [1], the half-life is recorded as 3.8 h.

Source of the values: paper PMC12115342, “Preparation and Evaluation of Tadalafil-Loaded Nanoemulgel for Transdermal Delivery in Cold-Induced Vasoconstriction: A Potential Therapy for Raynaud’s Phenomenon” (Pharmaceutics, 2025).
